Reference: ChEMBL document CHEMBL1135641, “Antitumor agents. 217. Curcumin analogues as novel androgen receptor antagonists with potential as anti-prostate cancer agents” (J Med Chem, 2002)

How the values were obtained:
[1] = target: T1, Androgen receptor (Homo sapiens) (UniProt P10275); test: Antagonistic activity against Androgen receptor in DU-145 human prostate cancer cells; format: functional, cell-based
T1 sequence (whole entry): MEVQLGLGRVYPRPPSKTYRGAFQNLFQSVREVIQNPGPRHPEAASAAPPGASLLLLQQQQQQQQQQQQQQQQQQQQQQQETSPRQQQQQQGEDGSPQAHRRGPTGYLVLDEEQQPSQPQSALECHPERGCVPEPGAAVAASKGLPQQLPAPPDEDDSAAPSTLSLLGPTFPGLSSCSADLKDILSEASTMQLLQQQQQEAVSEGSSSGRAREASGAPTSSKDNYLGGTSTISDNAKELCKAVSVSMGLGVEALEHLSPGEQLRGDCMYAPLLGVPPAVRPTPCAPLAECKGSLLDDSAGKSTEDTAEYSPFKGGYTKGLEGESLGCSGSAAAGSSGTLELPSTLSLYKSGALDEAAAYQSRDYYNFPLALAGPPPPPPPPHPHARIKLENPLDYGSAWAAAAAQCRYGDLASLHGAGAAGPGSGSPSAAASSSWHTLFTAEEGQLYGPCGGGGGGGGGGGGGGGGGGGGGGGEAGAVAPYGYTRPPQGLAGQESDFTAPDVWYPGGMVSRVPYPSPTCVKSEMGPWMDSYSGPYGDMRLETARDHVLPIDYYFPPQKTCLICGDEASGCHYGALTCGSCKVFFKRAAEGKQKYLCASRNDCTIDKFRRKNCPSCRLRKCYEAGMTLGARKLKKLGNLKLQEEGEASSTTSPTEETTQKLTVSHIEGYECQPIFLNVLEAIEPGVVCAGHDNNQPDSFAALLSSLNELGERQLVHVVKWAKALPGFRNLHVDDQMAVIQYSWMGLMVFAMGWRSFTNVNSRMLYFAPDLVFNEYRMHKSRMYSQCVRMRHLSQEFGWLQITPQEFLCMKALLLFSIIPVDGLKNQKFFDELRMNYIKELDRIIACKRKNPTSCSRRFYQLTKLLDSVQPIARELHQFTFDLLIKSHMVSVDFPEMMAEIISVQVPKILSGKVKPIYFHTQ

[2] = target: T1, Androgen receptor (Homo sapiens); test: Reduction in DHT-induced Androgen receptor activity
[3] = target: T1, Androgen receptor (Homo sapiens); test: Antagonistic activity against Androgen receptor in PC-3 human prostate cancer cells; format: functional, cell-based

SMILES	Reduction [1]	Reduction [2]	Reduction [3]
COC(=O)COc1ccc(/C=C/C(=O)/C=C(O)/C=C/c2ccc(OCC(=O)OC)c(OC)c2)cc1OC	54%		
CCOC(O)=C(C(=O)/C=C/c1ccc(O)c(OC)c1)C(=O)/C=C/c1ccc(O)c(OC)c1	53.8%		
COc1ccc(CCC(=O)CC(=O)CCc2ccc(OC)c(OC)c2)cc1OC		18%	
COc1ccc(CCC(=O)CC(O)CCc2ccc(OC)c(OC)c2)cc1OC (stereo unspecified)		18%	
COc1ccc(/C=C/C(=O)/C=C(O)/C=C/c2ccc(OC)c(OC)c2)cc1OC	45%		70%
